Measurements published in patent US20150274661A1, “INDOL-AMIDE COMPOUNDS AS BETA-AMYLOID INHBITORS” (Hoffmann-La Roche Inc., priority 2012, published 2015).

test system: Aβ42 secretion; assay: Cellular γ-secretase assay (inhibition of Aβ42 secretion); format: cell-based; conditions: Homo sapiens, 22 h, human neuroglioma H4 cells overexpressing human APP, 22 hours incubation
Procedure: Cellular γ-Secretase Assay
The compounds were investigated in accordance with the test given hereinafter.
Human neuroglioma H4 cells overexpressing human APP were plated at 30,000 cells/well/200 μL in 96-well plates in IMDM media containing 10% FCS, […] Hygromycin B and incubated for 2 hours at 37° C., 5% CO2 prior to adding test compounds.
Compounds for testing were dissolved in 100% Me2SO yielding in a 10 mM stock solution. Typically 12 μL of these solutions were further diluted in 1000 μL of IMDM media (w/o FCS). Subsequent 1:1 dilutions gave a ten point dose response curve. 100 μL of each dilution was added to the cells in 96-well plates. Appropriate controls using vehicle only and reference compound were applied to this assay. The final concentration of Me2SO was 0.4%.
After incubation for 22 hours at 37° C., 5% CO2, 50 μL supernatant was transferred into round-bottom 96-well polypropylene plates for detection of Aβ42. 50 μL assay buffer (50 mM Tris/Cl, pH 7.4, 60 mM NaCl, 0.5% BSA, 1% TWEEN 20) was added to the wells followed by the addition of 100 μL of detection antibody (ruthenylated BAP15 0.0625 μg/mL in assay buffer). 50 μL of a premix of capture antibody (biotinylated 6E10 antibody, 1 μg/mL) and Streptavidin-coated magnetic beads (Dynal M-280, 0.125 mg/mL) were preincubated for 1 hour at room temperature before adding the assay plates. Assay plates were incubated on a shaker for 3 hours at room temperature and finally read in the Bioveris M8 Analyser according to the manufacturer's instructions (Bioveris).
IC50 values for inhibition of Aβ42 secretion were calculated by nonlinear regression fit analysis using XLfit 4.0 software (IDBS).

| Compound | EC50 [nM] |
| --- | --- |
| COCCN1CCCC(c2ccc3[nH]c(C(=O)Nc4cc(F)cc(F)c4)cc3c2)C1 (centres unmarked) [Example 60, 5-[1-(2-Methoxy-ethyl)-piperidin-3-yl]-1H-indole-2-carboxylic acid (3,5-difluoro-phenyl)-amide] | 1380 |
| COc1cccc(NC(=O)c2cc3cc(C4CCN(C(C)C)CC4)ccc3[nH]2)c1 [Example 25, 5-(1-Isopropyl-piperidin-4-yl)-1H-indole-2-carboxylic acid (3-methoxy-phenyl)-amide] | 2680 |
| O=C(Nc1ccc(F)c(F)c1)c1cc2cc(C3=COCCC3)ccc2[nH]1 [Example 85, 5-(5,6-Dihydro-4H-pyran-3-yl)-1H-indole-2-carboxylic acid (3,4-difluoro-phenyl)-amide] | 445 |
| N#CCN1CC[C@H](c2ccc3[nH]c(C(=O)Nc4cccc(F)c4)cc3c2)C1 [Example 108, (R)-5-(1-(Cyanomethyl)pyrrolidin-3-yl)-N-(3-fluorophenyl)-1H-indole-2-carboxamide] | 646 |
| O=C(Nc1cc(F)cc(F)c1)c1cc2cc(C3CCCN(S(=O)(=O)c4ccccc4)C3)ccc2[nH]1 (centres unmarked) [Example 53, 5-(1-Benzenesulfonyl-piperidin-3-yl)-1H-indole-2-carboxylic acid (3,5-difluoro-phenyl)-amide] | 392 |
| CN1CCC(c2ccc3[nH]c(C(=O)Nc4ccc(F)cc4)cc3c2)CC1 [Example 36, 5-(1-Methyl-piperidin-4-yl)-1H-indole-2-carboxylic acid (4-fluoro-phenyl)-amide] | 1090 |
| O=C(Nc1cncc(F)c1)c1cc2cc(C3CCNC3)ccc2[nH]1 (centres unmarked) [Example 75, N-(5-Fluoropyridin-3-yl)-5-(pyrrolidin-3-yl)-1H-indole-2-carboxamide] | 1310 |
| CC(C)N1CCC(c2ccc3[nH]c(C(=O)Nc4cccc(F)c4)cc3c2)CC1 [Example 20, 5-(1-Isopropyl-piperidin-4-yl)-1H-indole-2-carboxylic acid (3-fluoro-phenyl)-amide] | 832 |
| CN1CCC(c2ccc3[nH]c(C(=O)Nc4cc(F)cc(C#N)c4)cc3c2)C1 (centres unmarked) [Example 6, N-(3-Cyano-5-fluorophenyl)-5-(1-methylpyrrolidin-3-yl)-1H-indole-2-carboxamide] | 1420 |
| CCN1CCCC(c2ccc3[nH]c(C(=O)Nc4cccc(F)c4)cc3c2)C1 (centres unmarked) [Example 70, 5-(1-Ethylpiperidin-3-yl)-N-(3-fluorophenyl)-1H-indole-2-carboxamide] | 810 |
| CC(C)N1CCC(c2ccc3[nH]c(C(=O)Nc4cccc(C(F)(F)F)c4)cc3c2)CC1 [Example 22, 5-(1-Isopropyl-piperidin-4-yl)-1H-indole-2-carboxylic acid (3-trifluoromethyl-phenyl)-amide] | 2270 |
| CC(C)N1CCC(c2ccc3[nH]c(C(=O)Nc4ccccc4F)cc3c2)CC1 [Example 24, 5-(1-Isopropyl-piperidin-4-yl)-1H-indole-2-carboxylic acid (2-fluoro-phenyl)-amide] | 19400 |
| CC(=O)N1CCC(C(C)c2ccc3[nH]c(C(=O)Nc4cc(F)cc(F)c4)cc3c2)C1 (centres unmarked) [Example 95, 5-(1-(1-Acetylpyrrolidin-3-yl)ethyl)-N-(3,5-difluorophenyl)-1H-indole-2-carboxamide] | 2480 |
| CC(C)N1CCC(c2ccc3[nH]c(C(=O)Nc4ccc(F)nc4)cc3c2)CC1 [Example 32, 5-(1-Isopropyl-piperidin-4-yl)-1H-indole-2-carboxylic acid (6-fluoro-pyridin-3-yl)-amide] | 8150 |
| O=C(Nc1cccc(F)c1)c1cc2cc(C3CCCN(CC(F)(F)F)C3)ccc2[nH]1 (centres unmarked) [Example 73, N-(3-Fluorophenyl)-5-(1-(2,2,2-trifluoroethyl)piperidin-3-yl)-1H-indole-2-carboxamide] | 9290 |
| CC(=O)N1CCCC(c2ccc3[nH]c(C(=O)Nc4cc(F)cc(F)c4)cc3c2)C1 (centres unmarked) [Example 52, 5-(1-Acetyl-piperidin-3-yl)-1H-indole-2-carboxylic acid (3,5-difluoro-phenyl)-amide] | 273 |
| O=C(Nc1cc(F)cc(F)c1)c1cc2cc(C3CCCNC3)ccc2[nH]1 (centres unmarked) [Example 62, 5-Piperidin-3-yl-1H-indole-2-carboxylic acid (3,5-difluoro-phenyl)-amide] | 354 |

Results, then the compound that gave them:

| EC50 [nM] | Compound |
| --- | --- |
| 10900 | COc1ccc(NC(=O)c2cc3cc(C4CCN(C(C)C)CC4)ccc3[nH]2)cc1 [Example 26, 5-(1-Isopropyl-piperidin-4-yl)-1H-indole-2-carboxylic acid (4-methoxy-phenyl)-amide] |
| 7420 | C[C@@H](c1ccc2[nH]c(C(=O)Nc3cc(F)cc(F)c3)cc2c1)[C@@H]1CCN(CC(F)(F)F)C1 [Example 120, N-(3,5-Difluorophenyl)-5-((R)-1-((S)-1-(2,2,2-trifluoroethyl)pyrrolidin-3-yl)ethyl)-1H-indole-2-carboxamide] |
| 4250 | N#CCN1CCC(c2ccc3c(c2)cc(C(=O)Nc2cncc(F)c2)n3CC#N)C1 (centres unmarked) [Example 81, 1-Cyanomethyl-5-(1-cyanomethyl-pyrrolidin-3-yl)-1H-indole-2-carboxylic acid (5-fluoro-pyridin-3-yl)-amide] |
| 3830 | O=C(Nc1cc(F)cc(F)c1)c1cc2cc(C3CCN(CC(F)(F)F)C3)ccc2[nH]1 (centres unmarked) [Example 10, 5-[1-(2,2,2-Trifluoro-ethyl)-pyrrolidin-3-yl]-1H-indole-2-carboxylic acid (3,5-difluoro-phenyl)-amide] |
| 3830 | O=C(Nc1cc(F)cc(F)c1)c1cc2cc(/C=C/N3C(=O)[C@@H]4CC[C@H]3C4)ccc2[nH]1 [Example 101, 5-[(E)-2-((1S,4R)-3-Oxo-2-aza-bicyclo[2.2.1]hept-2-yl)-vinyl]-1H-indole-2-carboxylic acid (3,5-difluoro-phenyl)-amide] |
| 1930 | COCC(=O)N1CCC(c2ccc3[nH]c(C(=O)Nc4cncc(F)c4)cc3c2)C1 (centres unmarked) [Example 82, N-(5-Fluoropyridin-3-yl)-5-(1-(2-methoxyacetyl)pyrrolidin-3-yl)-1H-indole-2-carboxamide] |
| 1500 | O=C(Nc1cccc(F)c1)c1cc2cc([C@@H]3CCCN(CCO)C3)ccc2[nH]1 [Example 115, (S)—N-(3-Fluorophenyl)-5-(1-(2-hydroxyethyl)piperidin-3-yl)-1H-indole-2-carboxamide] |
| 1270 | N#Cc1cc(F)cc(NC(=O)c2cc3cc(C4CCNC4)ccc3[nH]2)c1 (centres unmarked) [Example 9, N-(3-Cyano-5-fluorophenyl)-5-(pyrrolidin-3-yl)-1H-indole-2-carboxamide] |
| 1240 | O=C(Nc1cccc(F)c1)c1cc2cc(C3CCN(CC(F)(F)F)C3)ccc2[nH]1 (centres unmarked) [Example 15, N-(3-Fluorophenyl)-5-(1-(2,2,2-trifluoroethyl)pyrrolidin-3-yl)-1H-indole-2-carboxamide] |
| 1240 | O=C(Nc1cccc(F)c1)c1cc2cc(C3CCN(Cc4ccccc4)C3)ccc2[nH]1 (centres unmarked) [Example 3, 5-(1-Benzylpyrrolidin-3-yl)-N-(3-fluorophenyl)-1H-indole-2-carboxamide] |
| 1180 | CC(c1ccc2[nH]c(C(=O)Nc3cc(F)cc(F)c3)cc2c1)C1CCNC1 (centres unmarked) [Example 92, N-(3,5-Difluorophenyl)-5-(1-(pyrrolidin-3-yl)ethyl)-1H-indole-2-carboxamide] |
| 981 | O=C(Nc1cncc(F)c1)c1cc2cc(C3CCN(CC4CC4)C3)ccc2[nH]1 (centres unmarked) [Example 79, 5-(1-(Cyclopropylmethyl)pyrrolidin-3-yl)-N-(5-fluoropyridin-3-yl)-1H-indole-2-carboxamide] |
| 977 | O=C(Nc1cccc(F)c1)c1cc2cc(C3CCCN(CC4CC4)C3)ccc2[nH]1 (centres unmarked) [Example 71, 5-(1-(Cyclopropylmethyl)piperidin-3-yl)-N-(3-fluorophenyl)-1H-indole-2-carboxamide] |
| 795 | O=C(Nc1cc(F)cc(F)c1)c1cc2cc(C3CCN(Cc4ccccc4)C3)ccc2[nH]1 (centres unmarked) [Example 1, 5-(1-Benzylpyrrolidin-3-yl)-N-(3,5-difluorophenyl)-1H-indole-2-carboxamide] |
| 528 | O=C(Nc1cc(F)cc(F)c1)c1cc2cc([C@@H]3CCN(CC(F)(F)F)C3)ccc2[nH]1 [Example 104, 5-[(S)-1-(2,2,2-Trifluoro-ethyl)-pyrrolidin-3-yl]-1H-indole-2-carboxylic acid (3,5-difluoro-phenyl)-amide] |
| 519 | CC(C)N1CCC(c2ccc3[nH]c(C(=O)Nc4cccc(F)c4)cc3c2)C1 (centres unmarked) [Example 14, N-(3-Fluorophenyl)-5-(1-isopropylpyrrolidin-3-yl)-1H-indole-2-carboxamide] |
| 466 | O=C(Nc1cc(F)cc(F)c1)c1cc2cc(C3CCCN(S(=O)(=O)C4CC4)C3)ccc2[nH]1 (centres unmarked) [Example 56, 5-(1-Cyclopropanesulfonyl-piperidin-3-yl)-1H-indole-2-carboxylic acid (3,5-difluoro-phenyl)-amide] |

same assay, conditions: human neuroglioma H4 cells overexpressing human APP, 22 hours incubation

| Compound | EC50 [nM] |
| --- | --- |
| CN1CC[C@H](c2ccc3[nH]c(C(=O)Nc4cc(F)cc(F)c4)cc3c2)C1 [Example 103, 5-((R)-1-Methyl-pyrrolidin-3-yl)-1H-indole-2-carboxylic acid (3,5-difluoro-phenyl)-amide] | 374 |
